Measurements as given in patent US10660934B2, “Neuroprotective peptide” (SENJU PHARMACEUTICAL CO., LTD., priority 2016, dated 2020).
Blank lines part the entries; values can stand above or below the molecule they belong to. Where no end group is shown, it is not given here.

What was measured:
[1] = Stability in a vitreous humor solution; assay type: in vitro ADME, rabbit
Experimental: (Two) rabbits were euthanized by intravenous administration of 5 ml of a pentobarbital sodium solution, and then their eyeballs were removed. An incision was made in the equatorial region of each eyeball and the vitreous humor-solution was harvested from each eyeball using a syringe (18G injection needle) at the site of incision. The mixed vitreous humor solution was filtered with a cell strainer (40 μm) and the filtrate was used as the vitreous humor solution for the stability tests. 600 μl of the vitreous humor solution was mixed with 1.2 μl of a Primocin at a concentration of 50 mg/ml and the resultant solution was used as sample solution. 270 μl of the sample solution and […] in a 30 μl aqueous solution were mixed and the resultant mixture was used as the test sample. The test sample was incubated at 37° C. […] The analysis samples were stored frozen at −20° C. until it was time to take readings using them. […] Then, the concentration of Peptide 1 in each sample was analyzed using liquid chromatography. The concentrations were calculated from the area values obtained using the external standard method. […]
The residual rate was calculated using the following formula: Residual rate=(the concentration of peptide after 7 days' incubation/the concentration of peptide in the test samples immediately after they were prepared)×100 [Formula 1]

[2] = test system: rat retinal ganglion cells (RGC); experiment: Hypoxia-induced cell death assay in rat retinal ganglion cells (Calcein-AM/Ethidium homodimer); assay type: cell-based; conditions: for Rate of cell-death suppression (%): 24 hours hypoxia
Experimental: Retinal ganglion cells were isolated by a magnetic activated cell sorting method (MACS). Retinas were harvested from neonatal rats (Slc: Sprague-Dawley, 7-day old) and the tissue was dissociated using a Neural Tissue Dissociation Kit (Miltenyi Biotec, 130-094-802). Then, using a Retinal Ganglion Cell Isolation Kit (Miltenyi Biotec, 130-096-209), the endothelial cells and microglia were removed, and a positive selection for CD90.1^+ RGC was carried out by means of CD90.1MicroBeads. The test was carried out with the approval of the Animal Test Ethics Committee based on the Act on Welfare and Management of Animals (Act number 105 of Oct. 1, 1973, last revision: Act number 38 of Jun. 12, 2013), etc. 2. Cell Culture
After suspending the isolated RGC in a neurobasal medium (Gibco Corporation, 12348-017) containing a B27 supplement (Invitrogen, 0080085-SA), 1 mM of L-glutamine (Gibco, 25030), 50 ng/ml of BDNF (Peprotech, 25-02), 50 ng/ml of CNTF (Peprotech, 450-50) and 5 μm of Forskolin. (Sigma, F6886), they were seeded on a 96-well plate (Corning, 354596), ‘which’ was coated with poly-D-lysine/laminin, at a density of 5×10^3 cells/100 μl/well, and incubated at 37° C. and 5% CO2 for three days.
After having replaced the media with neurobasal media comprising a B27 supplement, 1 mM of L-glutamine […] and each peptide, a hypoxia state (O2 concentration of 0.1% or less) was induced by putting the plate in an Anaero Pack rectangular jar with Anaero Pack Kenki 5% (Mitsubishi Gas Chemical Company, Inc., A-07) with hermetically sealing, and incubating at 37° C. After incubating for 24 hours under hypoxia condition, Calcein-AM and Ethidium homodimer (Invitrogen, L3224) were added to the media. As a result of staining the cells, it was possible to distinguish between the viable cells and the dead cells. The number of viable cells and dead cells were measured using an Image Pro plus, and the rate of viability was given as “the proportion of the viable cell count relative to the total cell count.” 4. Test Results
The isolation and incubation of RGC were performed by the same methods as for Test Example 3-1, and 2.
Commercially available PRP4 (Abnova, H0011272-Q01) having the sequence of SEQ ID NO: 2, was used for Peptide 5. The evaluation of Peptide 5 was carried out by the same evaluation method as used for Test Example 3-3.

[3] = test system: SH-SY5Y cells; experiment: Hypoxia-induced cell death assay in human neuroblastoma SH-SY5Y cells (LDH); assay type: cell-based; conditions: 100 nM, 24 hours hypoxia (O2 0.1% or less), glucose-free DMEM, mean ± standard error (n = 3)
Experimental: SH-SY5Y cells (ATCC) were sustainably cultured in a DMEM/F12 medium (Invitrogen, 11330-032) supplemented with a 10% serum (Invitrogen, 10062-147) under the condition of 37° C. and 5% CO2.
The cells were seeded on a 96-well plate (Iwaki, 3860-096) at a density of 2×10^4 cells/100 μl/well. The following day the medium was replaced with a DMEM/F12 medium comprising a 1% serum and 10 μM of a retinoic acid (Wako, 302-79-4) and differentiated by incubation for 2 days. After replacing the medium with a glucose-free DMEM medium supplemented with 100 nM of Peptide 1, a hypoxia state (O2 concentration of 0.1% or less) was induced by putting the plate in an Anaero Pack rectangular jar with Anaero Pack Kenki 5% (Mitsubishi Gas Chemical Company, Inc., A-07) with hermetically sealing, and culturing at 37° C. Alter culturing for 24 hours in the hypoxia state, the cell-death inhibiting rate by the peptide was calculated by measuring the amount of LDH in the cells and the medium, using an LDH cytotoxicity detection kit (Takara, MK401). Moreover, 100 nM of an IGF-1 was used as a positive control in the experiment IGF-1 has a protective effect against nerve cell death (Mol. Cell Neurosci, 2011, 47 (3), 181-190). 3. Test Results

[4] = 100 nM, mean ± standard error (n = 14-19)

- stability in a vitreous humor solution (in words) ([1]; 7 days at 37° C.): stable in a vitreous humor solution
- remaining at 168 h ([1]; vitreous humor solution (filtered, from rabbit eyeballs), after 7 days' incubation at 37° C. in rabbit vitreous humor solution, read-out: Residual ratio (%)): 98.4%
Molecule: HPPPPPFQNQQRPP [Peptide 1, HPPPPPFQNQQRPP]

Molecule: QQRPP (Peptide of PRP4) [Peptide 4]
- Rate of cell-death suppression (%) [2, 4]: 31.1 ± 7.8 %

Molecule: HPPPPPFQNQQ (peptide of PRP4) [Peptide 2]
- Rate of cell-death suppression (%) [2, 4]: 26.4 ± 4.8 %

Molecule: HPPPPPFQ (peptide of PRP4) [Peptide 3]
- Rate of cell-death suppression (%) [2, 4]: 27.2 ± 6.6 %

Molecule: IGF-1
- Cell lethality (%) [3]: 88.1 ± 8.3 %

B1: Peptide 5: Commercially available PRP4 (Abnova, H0011272-Q01) having the sequence of SEQ ID NO: 2 (protein)
chain: QSTDNDVNYEDFTFTIPDVEDSSQRPDQGPQRPPPEGLLPRPPGDSGNQDDGPQQRPPKPGGHHRHPPPPPFQNQQRPPQRGHRQLSLPRFPSVSLQEAS
modifications: commercial recombinant protein, possible tag; Peptide of PRP4
- Rate of cell-death suppression (%) ([2]; 10 nM, mean ± standard error (n = 12 to 18)): 66.2 ± 14.4 %
- suppression of cell death from hypoxia (in words) ([2]; rat RGC, Test Example 4, 10 nM): significantly suppressed the cell death from hypoxia
